# Read-outs that look alike come from different tables or passages of the source.
# How the values were obtained:
# Candida albicans [1] = experiment: MIC/MFC broth microdilution (CLSI); format: cell-based; details: Candida albicans SC5314
# Experimental: (§1) Antifungal susceptibility was determined by broth microdilution according to the CLSI guidelines described in M27-Ed4 ([16]). […] MFC was determined by back-plating drug-treated cultures from MIC broths onto SDA plates. The MFC was defined as the lowest concentration from which no colonies could be cultured.
# [2] = system: Cryptococcus deuterogattii; experiment: checkerboard drug interaction (FICI, MICc);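 as to all read-outs here: simplified diagonal checkerboard screen pairing antifungal drugs with FPPS inhibitors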; format: cell-based; details: C. deuterogattii; for INH FD (MIC-MICc fold decrease): fold decrease of inhibitor MIC
# Experimental: (§2) Drug interactions between antifungals and FPPS inhibitors were investigated using a simplified checkerboard diagonal screening method ([45]). […] FICIs were determined according to the Loewe additivity model ([17]).
# Aspergillus fumigatus [3] = experiment: MIC/MFC broth microdilution (CLSI); details: ATCC204305
# Experimental: as §1
# Candida glabrata [4] = experiment: MIC/MFC broth microdilution (CLSI); details: Nakaseomyces glabratus, CBS138;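 also: broth microdilution following CLSI M27-Ed4, MFC taken as the lowest drug level yielding no growth once MIC wells were subcultured on SDA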
# Experimental: as §1
# Trichophyton rubrum [5] = experiment: checkerboard drug interaction (FICI, MICc);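 also: simplified diagonal checkerboard screen pairing azole antifungals with FPPS inhibitors, FICI calculated under the Loewe additivity model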; format: cell-based; details: T. rubrum
# Experimental: as §2
# Saccharomyces cerevisiae [6] = experiment: checkerboard drug interaction (FICI, MICc); format: cell-based; set-up: INH MICc / INH MICc (ITR:INH) / INH MICc (KET:INH) / INH MICc (FLC:INH): unit not given beside the values;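 also: simplified diagonal checkerboard screen pairing antifungals with FPPS inhibitors, FICI calculated under the Loewe additivity model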
# Saccharomyces cerevisiae [7] = experiment: MIC/MFC broth microdilution (CLSI); format: cell-based; details: Saccharomyces cerevisiae S288c
# Experimental: as §1
# Trichophyton rubrum [8] = experiment: MIC/MFC broth microdilution (CLSI); details: Trichophyton rubrum
# Experimental: as §1
# Aspergillus flavus [9] = experiment: checkerboard drug interaction (FICI, MICc);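 also: simplified diagonal checkerboard screen pairing azole antifungals with FPPS inhibitors, FICI calculated under the Loewe additivity model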; format: cell-based; set-up: INH MICc (KET:INH) / INH MICc (FLC:INH): unit not given beside the values; details: A. flavus
# eight fungal species [10] = experiment: MIC/MFC summary across the eight fungal species of Table 1; format: cell-based
# Experimental: The antifungal activity of these compounds was evaluated according to CLSI guidelines ([16]).
# Cryptococcus neoformans [11] = experiment: checkerboard drug interaction (FICI, MICc);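 as to all read-outs here: antifungal plus FPPS inhibitor pairs tested against Cryptococcus neoformans by simplified diagonal checkerboard screening, FICI computed under the Loewe additivity model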; format: cell-based; details: C. neoformans; for INH FD (MIC-MICc fold decrease): fold decrease of inhibitor MIC
# Experimental: as §2
# Aspergillus flavus [12] = experiment: MIC/MFC broth microdilution (CLSI); details: ATCC204304
# Experimental: as §1
# Cryptococcus neoformans [13] = experiment: MIC/MFC broth microdilution (CLSI); details: Cryptococcus neoformans;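 also: susceptibility testing followed the CLSI M27-Ed4 broth microdilution document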
# Experimental: as §1
# HEK-293T cells = experiment: MTT reduction cytotoxicity assay; format: cell-based; details: Homo sapiens, HEK-293T, 72 h, MTT, 72 h
# Aspergillus fumigatus [14] = experiment: checkerboard drug interaction (FICI, MICc); format: cell-based;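 also: simplified diagonal checkerboard screen pairing antifungals with FPPS inhibitors against Aspergillus fumigatus, with FICI calculated under the Loewe additivity model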
# Experimental: as §2
# Candida glabrata [15] = experiment: checkerboard drug interaction (FICI, MICc);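 as to all read-outs here: simplified diagonal checkerboard screen pairing antifungals with FPPS inhibitors, FICI calculated under the Loewe additivity model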; format: cell-based; details: C. glabrata; for INH FD (MIC-MICc fold decrease): fold decrease of inhibitor MIC
# Experimental: as §2
# eight fungal species [16] = experiment: checkerboard interaction with azoles, summary across the eight species; format: cell-based; details: geometric mean MIC in combination with azoles
# From the text: Synergy between lipophilic FPPS inhibitors and azole antifungals was investigated by determining the fractional inhibitory concentration index (FICI) (Fig. 2; Table S1 Fig. S1) ([17]). […]. Derivatives PLA9 and 11, and PDA9, 11, and 12 antagonized azoles in C. albicans, C. neoformans, and C. deuterogattii, yet were largely synergistic in C. glabrata and S. cerevisiae. […].
# [17] = system: Cryptococcus deuterogattii; experiment: MIC/MFC broth microdilution (CLSI); details: Cryptococcus deuterogattii;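 also: broth microdilution per CLSI M27-Ed4. MFC is the lowest concentration yielding no colonies when MIC broths are subcultured onto SDA plates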
# Experimental: as §1
# Candida albicans [18] = experiment: checkerboard drug interaction (FICI, MICc);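 as to all read-outs here: antifungal plus FPPS inhibitor combinations on Candida albicans tested by a simplified diagonal checkerboard screen, with FICI calculated under the Loewe additivity model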; format: cell-based; details: C. albicans; for INH FD (MIC-MICc fold decrease): fold decrease of inhibitor MIC
# Experimental: as §2
# [19] = FLC:INH combination, MIC of the inhibitor in combination with FLC
# [20] = FLC:INH combination, fold decrease of FLC MIC
# [21] = ITR:INH combination, MIC of the inhibitor in combination with ITR
# [22] = ITR:INH combination, fold decrease of ITR MIC
# [23] = KET:INH combination, MIC of the inhibitor in combination with KET
# [24] = KET:INH combination, fold decrease of KET MIC
# [25] = Fractional Inhibitory Concentration Index, fluconazole + inhibitor
# [26] = Fractional Inhibitory Concentration Index, itraconazole + inhibitor
# [27] = Fractional Inhibitory Concentration Index, ketoconazole + inhibitor
# [28] = MIC of the inhibitor in combination with fluconazole
# [29] = MIC of the inhibitor in combination with itraconazole
# [30] = MIC of the inhibitor in combination with ketoconazole
# [31] = MIC-MICc fold decrease of fluconazole, negative = increase
# [32] = MIC-MICc fold decrease of itraconazole, negative = increase
# [33] = MIC-MICc fold decrease of ketoconazole, negative = increase
# [34] = MIC-MICc fold decrease of the inhibitor, with fluconazole
# [35] = MIC-MICc fold decrease of the inhibitor, with itraconazole
# [36] = MIC-MICc fold decrease of the inhibitor, with ketoconazole
structure (smiles),measurement,setting,value
CCCCCCCCCCCN1CCC[C@H]1C(=O)N[C@H](CC(=O)OC)C(=O)OC [dmPDA11],MFC,Candida albicans [1],> 128 µg/mL
same,MIC,Candida albicans [1],> 128 µg/mL
same,FICI,[2]; FLC:INH combination,1.5
same,INH MICc,[2]; [19],32
same,FLC FD (MIC-MICc fold decrease),[2]; [20],2
same,INH FD (MIC-MICc fold decrease),[2]; FLC:INH combination,1
same,FICI,[2]; ITR:INH combination,2
same,INH MICc,[2]; [21],32
same,ITR FD (MIC-MICc fold decrease),[2]; [22],1
same,INH FD (MIC-MICc fold decrease),[2]; ITR:INH combination,1
same,FICI,[2]; KET:INH combination,1.13
same,INH MICc,[2]; [23],32
same,KET FD (MIC-MICc fold decrease),[2]; [24],8
same,INH FD (MIC-MICc fold decrease),[2]; KET:INH combination,1
same,MFC,Aspergillus fumigatus [3],128 µg/mL
same,MIC,Aspergillus fumigatus [3],> 128 µg/mL
same,MFC,Candida glabrata [4],128 µg/mL
same,MIC,Candida glabrata [4],128 µg/mL
same,FICI (FLC:INH),Trichophyton rubrum [5]; [25],≥4
same,FICI (ITR:INH),Trichophyton rubrum [5]; [26],2.13
same,FICI (KET:INH),Trichophyton rubrum [5]; [27],≥4
same,INH MICc (FLC:INH),Trichophyton rubrum [5]; [28],64
same,INH MICc (ITR:INH),Trichophyton rubrum [5]; [29],32
same,INH MICc (KET:INH),Trichophyton rubrum [5]; [30],128
same,FLC FD (FLC:INH),Trichophyton rubrum [5]; [31],2
same,ITR FD (ITR:INH),Trichophyton rubrum [5]; [32],8
same,KET FD (KET:INH),Trichophyton rubrum [5]; [33],1
same,INH FD (FLC:INH),Trichophyton rubrum [5]; [34],-4
same,INH FD (ITR:INH),Trichophyton rubrum [5]; [35],-2
same,INH FD (KET:INH),Trichophyton rubrum [5]; [36],< -4
same,FICI (FLC:INH),Saccharomyces cerevisiae [6]; [25],≥4
same,FICI (ITR:INH),Saccharomyces cerevisiae [6]; [26],2
same,FICI (KET:INH),Saccharomyces cerevisiae [6]; [27],1.25
same,INH MICc (FLC:INH),Saccharomyces cerevisiae [6]; [28],256
same,INH MICc (ITR:INH),Saccharomyces cerevisiae [6]; [29],64
same,INH MICc (KET:INH),Saccharomyces cerevisiae [6]; [30],64
same,FLC FD (FLC:INH),Saccharomyces cerevisiae [6]; [31],-2
same,ITR FD (ITR:INH),Saccharomyces cerevisiae [6]; [32],1
same,KET FD (KET:INH),Saccharomyces cerevisiae [6]; [33],4
same,INH FD (FLC:INH),Saccharomyces cerevisiae [6]; [34],-4
same,INH FD (ITR:INH),Saccharomyces cerevisiae [6]; [35],1
same,INH FD (KET:INH),Saccharomyces cerevisiae [6]; [36],1
same,MFC,Saccharomyces cerevisiae [7],128 µg/mL
same,MIC,Saccharomyces cerevisiae [7],64 µg/mL
same,MFC,Trichophyton rubrum [8],> 128 µg/mL
same,MIC,Trichophyton rubrum [8],16 µg/mL
same,FICI (FLC:INH),Aspergillus flavus [9]; [25],0.75
same,FICI (ITR:INH),Aspergillus flavus [9]; [26],1.01
same,FICI (KET:INH),Aspergillus flavus [9]; [27],0.31
same,INH MICc (FLC:INH),Aspergillus flavus [9]; [28],64
same,INH MICc (ITR:INH),Aspergillus flavus [9]; [29],2
same,INH MICc (KET:INH),Aspergillus flavus [9]; [30],16
same,FLC FD (FLC:INH),Aspergillus flavus [9]; [31],2
same,ITR FD (ITR:INH),Aspergillus flavus [9]; [32],1
same,KET FD (KET:INH),Aspergillus flavus [9]; [33],4
same,INH FD (FLC:INH),Aspergillus flavus [9]; [34],4
same,INH FD (ITR:INH),Aspergillus flavus [9]; [35],128
same,INH FD (KET:INH),Aspergillus flavus [9]; [36],16
same,MFC,"eight fungal species [10]; across eight species, read-out: Geometric mean MFC",140 µg/mL
same,MIC,"eight fungal species [10]; geometric mean across eight species, read-out: GM fungal MIC",69.8 µg/mL
same,MIC,eight fungal species [10]; read-out: Geometric mean MIC,69.8 µg/mL
same,FICI,Cryptococcus neoformans [11]; FLC:INH combination,1.5
same,INH MICc,Cryptococcus neoformans [11]; [19],32
same,FLC FD (MIC-MICc fold decrease),Cryptococcus neoformans [11]; [20],1
same,INH FD (MIC-MICc fold decrease),Cryptococcus neoformans [11]; FLC:INH combination,2
same,FICI,Cryptococcus neoformans [11]; ITR:INH combination,0.75
same,INH MICc,Cryptococcus neoformans [11]; [21],16
same,ITR FD (MIC-MICc fold decrease),Cryptococcus neoformans [11]; [22],2
same,INH FD (MIC-MICc fold decrease),Cryptococcus neoformans [11]; ITR:INH combination,4
same,FICI,Cryptococcus neoformans [11]; KET:INH combination,3
same,INH MICc,Cryptococcus neoformans [11]; [23],64
same,KET FD (MIC-MICc fold decrease),Cryptococcus neoformans [11]; [24],-2
same,INH FD (MIC-MICc fold decrease),Cryptococcus neoformans [11]; KET:INH combination,1
same,MFC,Aspergillus flavus [12],> 128 µg/mL
same,MIC,Aspergillus flavus [12],> 128 µg/mL
same,MFC,Cryptococcus neoformans [13],32 µg/mL
same,MIC,Cryptococcus neoformans [13],16 µg/mL
same,IC50,"HEK-293T cells; HEK-293T cells, read-out: IC50",6.19 µg/mL
same,IC50,HEK-293T cells; read-out: HEK IC50,6.19 µg/mL
same,FICI (FLC:INH),Aspergillus fumigatus [14]; [25],1.25
same,FICI (ITR:INH),Aspergillus fumigatus [14]; [26],0.53
same,FICI (KET:INH),Aspergillus fumigatus [14]; [27],3
same,INH MICc (FLC:INH),Aspergillus fumigatus [14]; [28],64
same,INH MICc (ITR:INH),Aspergillus fumigatus [14]; [29],2
same,INH MICc (KET:INH),Aspergillus fumigatus [14]; [30],128
same,FLC FD (FLC:INH),Aspergillus fumigatus [14]; [31],4
same,ITR FD (ITR:INH),Aspergillus fumigatus [14]; [32],2
same,KET FD (KET:INH),Aspergillus fumigatus [14]; [33],1
same,INH FD (FLC:INH),Aspergillus fumigatus [14]; [34],1
same,INH FD (ITR:INH),Aspergillus fumigatus [14]; [35],32
same,INH FD (KET:INH),Aspergillus fumigatus [14]; [36],-2
same,FICI,Candida glabrata [15]; FLC:INH combination,≥4
same,INH MICc,Candida glabrata [15]; [19],32
same,FLC FD (MIC-MICc fold decrease),Candida glabrata [15]; [20],-2
same,INH FD (MIC-MICc fold decrease),Candida glabrata [15]; FLC:INH combination,1
same,FICI,Candida glabrata [15]; ITR:INH combination,1
same,INH MICc,Candida glabrata [15]; [21],4
same,ITR FD (MIC-MICc fold decrease),Candida glabrata [15]; [22],2
same,INH FD (MIC-MICc fold decrease),Candida glabrata [15]; ITR:INH combination,8
same,FICI,Candida glabrata [15]; KET:INH combination,2
same,INH MICc,Candida glabrata [15]; [23],8
same,KET FD (MIC-MICc fold decrease),Candida glabrata [15]; [24],1
same,INH FD (MIC-MICc fold decrease),Candida glabrata [15]; KET:INH combination,4
same,GM fungal MICc,eight fungal species [16],25.4
same,MFC,[17],128 µg/mL
same,MIC,[17],16 µg/mL
same,FICI,Candida albicans [18]; FLC:INH combination,1.06
same,INH MICc,Candida albicans [18]; [19],8
same,FLC FD (MIC-MICc fold decrease),Candida albicans [18]; [20],1
same,INH FD (MIC-MICc fold decrease),Candida albicans [18]; FLC:INH combination,16
same,FICI,Candida albicans [18]; ITR:INH combination,1.06
same,INH MICc,Candida albicans [18]; [21],8
same,ITR FD (MIC-MICc fold decrease),Candida albicans [18]; [22],1
same,INH FD (MIC-MICc fold decrease),Candida albicans [18]; ITR:INH combination,16
same,FICI,Candida albicans [18]; KET:INH combination,1.06
same,INH MICc,Candida albicans [18]; [23],8
same,KET FD (MIC-MICc fold decrease),Candida albicans [18]; [24],1
same,INH FD (MIC-MICc fold decrease),Candida albicans [18]; KET:INH combination,16

# — paper PMC12892976, “Alkylation-based optimization of antifungal FPPS inhibitors yields a potent, broad-spectrum lipophilic zoledronate derivative” (mBio, 2025)
